Data on six molecules can be found in patent US20250172543A1, “HIGH DENSITY 3D HEPATOCYTE SPHEROID PLATFORM FOR DRUG ADME STUDIES” (Discovery Life Sciences, LLC, priority 2018, published 2025).

Data set [1] deals with 3D primary human hepatocyte (PHH) high density spheroids. Briefly: 3D PHH high density spheroid drug clearance assay. Type of data set: in vitro ADME. The note with it: 0.1 μM substrate, 6-well spheroid insert, in vivo hepatic clearance predicted from in vitro Clint by well stirred model.
Description: Plating PHHs onto 6-well high density spheroid insert (−700 microwells/insert): PHH were thawed as standard procedure and resuspended in WEM plating medium. PHH cells were counted and the cell density was adjusted to 0.35e6/ml using WEM plating medium. For plating PHHs, the pipet aid was set at low disperse speed. Right before plating, a 5 mL pipet was used to remove most medium from pre-wetted inserts. Even cell suspensions were prepared by gently pipetting up and down. Using a 5 mL pipet, with the position the tip against the side wall at the bottom, 2 mL of cell suspension (700K cells, -1000 cells/microwell) was added to a 6-well spheroid insert. The plate was allowed to sit for 15-20 min in the hood. The plates were checked under a microscope with a 4x objective, to ensure that that a similar number of cells have settled into each microwell.
Half medium change with WME+medium: The pipet aid was at low disperse speed. Using a 5 mL pipet, 1 mL of old medium was slowly from each insert. A 1000 μL pipet tip was positioned against the top part of the insert sidewall, and 1 mL pre-warmed WME+medium was slowly added with the medium being allowed to flow down the sidewall. After waiting 5-10 minutes between each half medium change, the half medium change was repeated 3 more times. The PHHs were checked under a microscope for spheroid formation.
Incubate the candidate compound(s) to be tested for clearance with the cultured spheroids: The pipet aid was set at low disperse speed. Using a 5 mL pipet, 1 mL of old medium was slowly removed from each insert. […] After 5-10 minutes, the culture was placed back to 37° C. incubator. The timer for incubation was started at this point.
Sampling: 40 μL/well stop solutions Labetalol (0.2 uM IN 0.05% FA/50%ACN) was aliquoted in an assay plate and kept on ice. At the desired assay incubation time (0 hr, 1 hr, 2 hrs, 4 hrs, 6 hrs, 12 hrs, 24 hrs, 36 hrs, 48 hrs, 3 days, 4 days, 5 days, 6 days, 7 days, 8 days, 9 days, 10 days, 11 days, 12 days, 13 days 14 days, 3 weeks, 4 weeks, or any value or range there between), 40 μL sample were drawn from each incubation well, mixed well with stop solution, and stored at −80° C.
LC/MS analysis: The amount of the candidate compound was measured using liquid chromatography/mass spectrometry, as is known in the art.
Calculate the elimination rate constant (ke1): The percentage of the candidate compound remaining in the culture was calculated by dividing the mass spectrometry peak area ratio at certain incubation times to that at time zero, as is known in the art. The natural logarithm of the percentage of the remaining candidate compound was plotted against time, and the kelwas calculated as the absolute value from the slope.
Calculate the depletion half-lives of the candidate compounds: Once the kel was determined for the candidate compound, the depletion half-life of the candidate compound was determined by Equation 1, as is known in the art.
Calculate the;n vitro clearance (Clint) of the candidate compound: The in vitro clearance of the candidate compounds was calculated using the in vitro half-lives from Equation 1 using the scaling factors of Equation 2, as is known in the art.
Calculate predicted in vivo hepatic clearance (CLh): The in vivo hepatic clearance was calculated from the in vitro clearance determined by Equation 2 using the well stirred model Equation 3, as is known in the art.
Data set [2] has as its system PHHs grown in suspension format. To be noted: human.
For data set [3] the following is noted: actual in vivo clearance for comparison; cited from earlier work.
The subject of data set [4] is PHHs grown in suspension format. Put plainly: Clearance measurement with PHHs grown in suspension format. The note with it: FIGS. 8A-I.

The structures appear in SMILES notation. Where two headings read alike, the source gives them in different places.

Consider `CCC1=C(C)CN(C(=O)NCCc2ccc(S(=O)(=O)NC(=O)N[C@H]3CC[C@H](C)CC3)cc2)C1=O` [Glimepiride], for which the “Predicted CLh, 3D HD Spheroids” value in data set [1] was 0.04. For the same molecule, the “Measurability of clearance in suspension hepatocytes” value (shortened to “Measurability of clearance”) in data set [2] is reported as “unable to measure”. For the same molecule, in data set [3], the “In Vivo CLnonrenal” value was 1.12.

For `CN1C(=O)CN=C(c2ccccc2)c2cc(Cl)ccc21` [Diazepam], the “In Vivo CLnonrenal” value in data set [3] is recorded as 0.53.

Turning to `CC(=O)CC(c1ccccc1)c1c(O)c2ccccc2oc1=O` (centres unmarked) [Warfarin], the “Predicted CLh, 3D HD Spheroids” value in data set [1] is on record as 0.01. In addition, the “Measurability of clearance” value in data set [2] is on record as “unable to measure”.

Consider `Cc1nnc2n1-c1ccc(Cl)cc1C(c1ccccc1)=NC2` [Alprazolam], for which the “Predicted CLh, 3D HD Spheroids” value in data set [1] is given as 0.45. Besides, the “In Vivo CLnonrenal” value in data set [3] is recorded as 0.61. Further, the “Measurability of clearance” value in data set [4] is “unable to measure”.

For the molecule `C[C@]12C=CC(=O)C=C1CC[C@@H]1[C@@H]2[C@@H](O)C[C@@]2(C)[C@H]1CC[C@]2(O)C(=O)CO` [Prednisolone], in data set [1], the “Predicted CLh, 3D HD Spheroids” value is 0.60. Besides, the “Measurability of clearance” value in data set [2] is on record as “unable to measure”. Besides, in data set [3], the “In Vivo CLnonrenal” value is given as 1.44.

On to `CCCCNC(=O)NS(=O)(=O)c1ccc(C)cc1` [Tolbutamide], for which the “Predicted CLh, 3D HD Spheroids” value in data set [1] is 0.22. For the same molecule, the “Measurability of clearance” value in data set [2] was “unable to measure”.
